Key:
BCRP = biological target: T1, BCRP (Homo sapiens, UniProt Q9UNQ0); experiment: MDCKII bidirectional permeability, BCRP expressing cells; conditions: dog
T1 sequence (Q9UNQ0 1-655): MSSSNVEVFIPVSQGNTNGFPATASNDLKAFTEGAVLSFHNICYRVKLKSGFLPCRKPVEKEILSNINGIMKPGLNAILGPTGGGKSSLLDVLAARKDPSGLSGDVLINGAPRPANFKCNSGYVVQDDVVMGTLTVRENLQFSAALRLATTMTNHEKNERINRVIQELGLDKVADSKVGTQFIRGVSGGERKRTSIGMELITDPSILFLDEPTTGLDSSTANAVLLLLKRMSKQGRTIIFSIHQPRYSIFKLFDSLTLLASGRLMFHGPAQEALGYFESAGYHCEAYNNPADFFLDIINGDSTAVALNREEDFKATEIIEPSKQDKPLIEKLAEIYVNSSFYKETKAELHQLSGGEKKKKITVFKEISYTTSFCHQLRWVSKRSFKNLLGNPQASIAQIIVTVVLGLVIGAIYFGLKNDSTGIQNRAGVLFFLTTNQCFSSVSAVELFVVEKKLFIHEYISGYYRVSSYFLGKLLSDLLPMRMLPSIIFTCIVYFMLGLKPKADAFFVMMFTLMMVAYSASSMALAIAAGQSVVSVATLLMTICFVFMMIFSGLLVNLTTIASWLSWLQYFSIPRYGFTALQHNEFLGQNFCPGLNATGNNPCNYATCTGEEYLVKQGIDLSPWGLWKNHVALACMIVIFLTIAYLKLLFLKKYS

[1] = MDCKII bidirectional permeability, mock transfected cells; format: in vitro ADME; conditions: dog, MDCK
HXA3 release = test system: HXA3 release; set-up: method as in PMID 19017997; conditions: 100 μM; cited from earlier work
[2] = test system: HXA3/MRP2‐driven neutrophil epithelial transmigration; experiment: HXA3/MRP2‐driven neutrophil transmigration assay (S. typhimurium‐stimulated T84 monolayer, MPO readout); format: cell-based, human; conditions: 100 μM probenecid (positive control); P = 0.0008
Experimental: As described under Materials and Methods, in the neutrophil transmigration assay, a polarized human intestinal cell line monolayer was grown on a transwell insert to mimic the intestinal epithelial barrier. The cells were then apically stimulated by the addition of pathogenic Salmonella typhimurium, eliciting HXA3 efflux via MRP2 into the apical side of the chamber. Fresh, unstimulated human neutrophils were added to the basolateral side of the monolayer, where they detected the HXA3 gradient and migrated through the epithelial monolayer to the apical side. They were then quantified by assay of myeloperoxidase (MPO), a neutrophil biomarker.
Following stimulation via pathogenic S. typhimurium to elicit HXA3 efflux, migration of fresh human neutrophils from the basolateral side of the polarized monolayer (in response to the HXA3 gradient) to the apical side was quantified by MPO activity assay. […]
In the neutrophil transmigration assay (a modified Boyden chamber assay), a polarized T84 human intestinal cell line monolayer was grown on a Transwell insert to mimic the intestinal epithelial barrier. […] Fresh human neutrophils, added to the basolateral side of the monolayer, detected the HXA3 gradient and migrated through the epithelial monolayer to the apical side, where they were quantified by assay of MPO activity, a neutrophil biomarker [47].

MDCKII‐BCRP‐LV cells = biological target: T2, MDCKII‐BCRP‐LV cells (Homo sapiens, UniProt Q9UNQ0); experiment: MDCKII bidirectional permeability, BCRP expressing cells
T2 sequence (Q9UNQ0 1-655): T1 sequence (Q9UNQ0 1-655)

MDCKII‐mock‐LV cells = experiment: MDCKII bidirectional permeability, mock transfected cells; format: in vitro ADME

COc1cc2nc(N3CCN(C(=O)c4ccco4)CC3)nc(N)c2cc1OC [Prazosin]
Papp A→B at 1 μM (BCRP): 3.02 ± 0.84 ×10⁻⁶ cm/s | Papp B→A at 1 μM (BCRP): 53.1 ± 8.15 ×10⁻⁶ cm/s | Papp A→B at 1 μM [1]: 14.7 ± 13.3 ×10⁻⁶ cm/s

CCCN(CCC)S(=O)(=O)c1ccc(C(=O)O)cc1 [probenecid]
inhibition of HXA3 release (HXA3 release): effectively inhibits HXA3 release | neutrophil migration inhibition [2]: extremely significant

Lucifer yellow [LY]
Papp A‐B (MDCKII‐BCRP‐LV cells; LY 40 μg mL^−1): 0.06 ± 0.01 × 10^−6 cm·s^−1 | Papp A‐B (MDCKII‐BCRP‐LV cells; LY 40 μg mL^−1 + ADS051 14 mg mL^−1 (TA applied apically)): 0.21 ± 0.02 × 10^−6 cm·s^−1 | Papp A‐B (MDCKII‐BCRP‐LV cells; LY 40 μg mL^−1 + ADS051 14 mg mL^−1 (TA applied basolaterally)): 0.19 ± 0.01 × 10^−6 cm·s^−1 | Papp A‐B (MDCKII‐mock‐LV cells; LY 40 μg·mL^−1): 0.20 ± 0.03 × 10^−6 cm·s^−1 | Papp A‐B (MDCKII‐mock‐LV cells; LY 40 μg·mL^−1 + ADS051 14 mg·mL^−1 (TA applied apically)): 0.32 ± 0.09 × 10^−6 cm·s^−1 | Papp A‐B (MDCKII‐mock‐LV cells; LY 40 μg·mL^−1 + ADS051 14 mg·mL^−1 (TA applied basolaterally)): 0.46 ± 0.09 × 10^−6 cm·s^−1
